Test systems include ACHN; CAKI-1; EKVX; HCT-15; HT-29; K562; LOX IMVI; M14; MCF7; NCI-H460; NCI-H522; OVCAR-8; PC-3; RPMI-8226; SF-539; SK-MEL-28; SK-OV-3; SNB-75; SR; OVCAR-3.
Common to all, as to assay: inhibition of tumour cell growth, NCI panel, 48 h

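96-well plates; 48 h exposure; 5 concentrations. Endpoints by linear interpolation between flanking doses. Not reached: highest tested concentration assigned. Here, GI50 denotes the concentration required for 50% inhibition of growth.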 Active and inactive are the calls of the source. Rule as the data show it: active = GI50 up to about 1.1 µM and inactive = higher.

As for `COc1ccc(C2=CC(c3ccc4c(c3)OCO4)c3c(c4ccccc4oc3=O)O2)cc1OC` (stereo unspecified), the GI50 with ACHN was 1.5 µM (inactive); in the assay on CAKI-1, 1.1 µM (active); in the assay on EKVX it was 4.16 µM (inactive); in the assay with HCT-15, 0.546 µM; in the assay on HT-29, 0.536 µM (active); in the assay on K562, 0.415 µM (active). Besides, the GI50 in the assay with LOX IMVI is 1.26 µM (inactive); with M14, 3.54 µM (inactive); in the assay with MCF7, 0.454 µM (active); with NCI-H460 it was 1.09 µM (active); with NCI-H522, 0.486 µM (active); in the assay on OVCAR-8 it was 3.53 µM (inactive). For the same molecule, the GI50 with PC-3 was 2.42 µM (inactive); with RPMI-8226, 2.64 µM (inactive); in the assay on SF-539, 0.69 µM (active); with SK-MEL-28 it was > 55.2 µM (inactive); with SK-OV-3, 0.859 µM (active); in the assay on SNB-75, 0.51 µM (active). In addition, the GI50 in the assay on SR is 0.486 µM (active).
Regarding `C[N+](C)(C)CC1CCCc2ccccc2C1=O` (stereo unspecified), the GI50 with ACHN was 5.02 µM (inactive); in the assay with CAKI-1, 4.71 µM (inactive); in the assay on EKVX, 6.46 µM (inactive); with HCT-15, 5.98 µM; in the assay on K562, 2.49 µM (inactive); with M14 it was 4.52 µM (inactive). Also, the GI50 was 2.04 µM (inactive) in the assay with MCF7; 22.1 µM (inactive) in the assay on NCI-H460; 1.49 µM (inactive) in the assay on NCI-H522; 7.26 µM (inactive) in the assay with OVCAR-3; 8.28 µM (inactive) with OVCAR-8; 16.8 µM (inactive) in the assay with PC-3. The GI50 with RPMI-8226 is 0.265 µM (active); with SF-539 it was 17.4 µM (inactive); with SK-MEL-28, 18.2 µM (inactive); with SK-OV-3, 20.3 µM (inactive); with SNB-75, 19.7 µM (inactive); in the assay with SR, 1.64 µM (inactive).
Regarding `N#C/C=C(/NC(=O)Nc1ccccc1)N1CCCC1`, the GI50 in the assay on ACHN is > 38.7 µM (inactive); in the assay on CAKI-1 it was > 45.9 µM (inactive); in the assay on EKVX, > 59.7 µM (inactive); in the assay on HCT-15 it was above 56.2 µM; with HT-29 it was > 72.6 µM (inactive); with K562 it was > 59.4 µM (inactive). Also, the GI50 with LOX IMVI was > 66.7 µM (inactive); in the assay with M14 it was > 49 µM (inactive); in the assay with MCF7, > 33.1 µM (inactive); in the assay with NCI-H460, > 37.5 µM (inactive); in the assay with NCI-H522 it was > 47.4 µM (inactive); in the assay on OVCAR-3, > 100 µM (inactive). The GI50 in the assay with OVCAR-8 is > 32.5 µM (inactive); in the assay with PC-3, > 35.3 µM (inactive); with RPMI-8226, > 82 µM (inactive); in the assay with SF-539 it was > 47.4 µM (inactive); in the assay with SK-MEL-28 it was > 47.9 µM (inactive); in the assay on SK-OV-3, > 100 µM (inactive). Besides, in the assay with SR, the GI50 was > 100 µM (inactive).
Regarding `CCOC(=O)n1c(=O)nc2c3c(ncn21)Oc1c(c(-c2ccccc2)nn1-c1ccccc1)C3c1ccc(Cl)cc1` (stereo unspecified), the GI50 with ACHN is 1.71 µM (inactive); with CAKI-1 it was 1.61 µM (inactive); with HCT-15, 1.18 µM; in the assay on HT-29, 1.75 µM (inactive); in the assay on K562 it was 1.08 µM (active); with LOX IMVI, 1.46 µM (inactive). The GI50 is 1.92 µM (inactive) with M14; 1.56 µM (inactive) in the assay on MCF7; 1.68 µM (inactive) in the assay with NCI-H460; 1.73 µM (inactive) with NCI-H522; 1.48 µM (inactive) with OVCAR-3; 1.69 µM (inactive) in the assay with OVCAR-8. Also, the GI50 is 1.73 µM (inactive) with PC-3; 1.46 µM (inactive) with RPMI-8226; 1.56 µM (inactive) in the assay on SF-539; 1.79 µM (inactive) in the assay on SK-MEL-28; 2.86 µM (inactive) in the assay on SK-OV-3; 1.91 µM (inactive) in the assay on SNB-75. In addition, the GI50 in the assay with SR was 1.35 µM (inactive).
Turning to `O=C(/C=C/c1ccccc1)CSc1nc[nH]n1`, the GI50 in the assay with ACHN was > 100 µM (inactive); in the assay on CAKI-1, > 100 µM (inactive); in the assay on EKVX, > 100 µM (inactive); in the assay with HCT-15, 41.3 µM; with HT-29, 44.4 µM (inactive); in the assay on K562 it was 46.8 µM (inactive). Further, the GI50 with M14 is > 100 µM (inactive); in the assay on MCF7, 36.4 µM (inactive); in the assay with NCI-H460, 79.4 µM (inactive); with NCI-H522 it was 30.5 µM (inactive); in the assay on OVCAR-3, > 100 µM (inactive); in the assay on OVCAR-8 it was > 100 µM (inactive). Besides, the GI50 with PC-3 was > 100 µM (inactive); in the assay on RPMI-8226 it was 35.1 µM (inactive); with SF-539, > 100 µM (inactive); in the assay with SK-MEL-28, 56.9 µM (inactive); in the assay on SK-OV-3, > 100 µM (inactive); with SNB-75, 14.3 µM (inactive). In addition, the GI50 in the assay with SR was 62.1 µM (inactive).
Consider `Cc1nc2ccc(Cl)cc2c2c1CCS2`, for which the GI50 was 45.1 µM (inactive) in the assay on ACHN; 55.2 µM (inactive) in the assay on CAKI-1; above 100 µM in the assay with HCT-15; 41.8 µM (inactive) with HT-29; 40.9 µM (inactive) in the assay with K562; 38 µM (inactive) in the assay on LOX IMVI. Moreover, the GI50 was 71.3 µM (inactive) with M14; 33.3 µM (inactive) in the assay with MCF7; 52.2 µM (inactive) in the assay on NCI-H460; > 100 µM (inactive) in the assay on NCI-H522; 47.8 µM (inactive) in the assay with OVCAR-3; 92 µM (inactive) with OVCAR-8. For the same molecule, the GI50 with PC-3 was 36.6 µM (inactive); in the assay on RPMI-8226 it was 16.3 µM (inactive); in the assay on SF-539, 87.5 µM (inactive); with SK-MEL-28 it was > 100 µM (inactive); in the assay with SK-OV-3, > 100 µM (inactive); in the assay on SR it was 40.9 µM (inactive).
Take `ClC1=C(Cl)C2OC3C=CCC3OC2C(Cl)=C1Cl` (stereo unspecified): the GI50 is 91 µM (inactive) in the assay on ACHN; > 100 µM (inactive) in the assay on CAKI-1; 44.1 µM (inactive) in the assay with EKVX; 32.1 µM in the assay on HCT-15; 21.3 µM (inactive) in the assay with HT-29; 37.8 µM (inactive) with K562. Besides, the GI50 in the assay with LOX IMVI is 52 µM (inactive); in the assay on M14, > 100 µM (inactive); in the assay with MCF7, 0.429 µM (active); in the assay on NCI-H460, 40 µM (inactive); in the assay with NCI-H522 it was 32.2 µM (inactive); in the assay with OVCAR-3 it was > 100 µM (inactive). For the same molecule, the GI50 was > 100 µM (inactive) in the assay with OVCAR-8; 39.7 µM (inactive) in the assay with PC-3; 23 µM (inactive) in the assay with RPMI-8226; > 100 µM (inactive) with SF-539; > 100 µM (inactive) in the assay on SK-MEL-28; > 100 µM (inactive) in the assay on SK-OV-3. In the assay with SR, the GI50 was 35.3 µM (inactive).
Consider `O=C1CSC(c2ccccc2O)N1c1ccc(-n2c(-c3ccccc3)nc3ccccc3c2=O)cc1` (stereo unspecified), for which the GI50 with ACHN was 19.7 µM (inactive); with CAKI-1 it was 29.2 µM (inactive); in the assay with HCT-15 it was 6.84 µM; in the assay with HT-29, 27.1 µM (inactive); in the assay on K562, 15.2 µM (inactive); in the assay on LOX IMVI it was 13.1 µM (inactive). Further, the GI50 is 33.7 µM (inactive) in the assay with M14; 28.1 µM (inactive) with MCF7; 14.8 µM (inactive) with NCI-H460; 19.9 µM (inactive) with NCI-H522; 14.6 µM (inactive) with OVCAR-3; 24.3 µM (inactive) in the assay with OVCAR-8. Moreover, the GI50 in the assay with PC-3 is 12.9 µM (inactive); in the assay with RPMI-8226, 21.1 µM (inactive); in the assay with SF-539, 16.6 µM (inactive); in the assay with SK-MEL-28 it was 28.4 µM (inactive); in the assay with SK-OV-3 it was 23.7 µM (inactive); with SNB-75, 54.1 µM (inactive). In addition, the GI50 with SR is 21.4 µM (inactive).
`COc1cc(Br)cc2cc(-c3cn4c(n3)sc3ccccc34)c(=O)oc12`: the GI50 was 32 µM (inactive) in the assay with ACHN; 22.9 µM (inactive) with CAKI-1; 14.5 µM (inactive) in the assay on EKVX; 23.6 µM in the assay with HCT-15; 29.5 µM (inactive) with HT-29; 13.6 µM (inactive) with K562. In addition, the GI50 in the assay with LOX IMVI was 18.4 µM (inactive); in the assay on M14, 24.4 µM (inactive); with MCF7 it was 35.6 µM (inactive); with NCI-H460, 33.7 µM (inactive); in the assay on NCI-H522, 14.5 µM (inactive); in the assay on OVCAR-3, 20 µM (inactive). The GI50 in the assay on OVCAR-8 is 28.6 µM (inactive); with PC-3, 16.3 µM (inactive); in the assay on RPMI-8226, 21.6 µM (inactive); in the assay with SF-539, 30.9 µM (inactive); in the assay on SK-OV-3, 30.1 µM (inactive); with SR, 21.6 µM (inactive).
In the case of `O=S(=O)(O)c1cc(/N=N/c2c(O)ccc3ccccc23)c2c(S(=O)(=O)O)cccc2c1`, the GI50 with ACHN was > 100 µM (inactive); in the assay with CAKI-1 it was > 100 µM (inactive); in the assay on EKVX, > 100 µM (inactive); with HCT-15 it was above 100 µM; with HT-29, > 100 µM (inactive); with K562, > 100 µM (inactive). The GI50 in the assay with M14, in the assay with MCF7, in the assay on NCI-H460, in the assay with NCI-H522, in the assay on OVCAR-3 and with OVCAR-8 was > 100 µM (inactive) in each case. For the same molecule, the GI50 is > 100 µM (inactive) with PC-3; > 100 µM (inactive) in the assay on RPMI-8226; > 100 µM (inactive) in the assay on SF-539; > 100 µM (inactive) with SK-MEL-28; > 100 µM (inactive) in the assay on SK-OV-3; < 0.01 µM (active) with SNB-75. For the same molecule, in the assay with SR, the GI50 was > 100 µM (inactive).
As to `OC[C@H]1O[C@@H](Oc2cc(O)cc(/C=C/c3ccc(O)cc3)c2)[C@H](O)[C@@H](O)[C@@H]1O` [PICEID], the GI50 is > 100 µM (inactive) with ACHN; > 100 µM (inactive) in the assay on CAKI-1; > 100 µM (inactive) in the assay on EKVX; above 100 µM in the assay with HCT-15; > 100 µM (inactive) with HT-29; > 100 µM (inactive) in the assay with K562. Moreover, the GI50 in the assay on LOX IMVI, in the assay with MCF7, with NCI-H460, in the assay on NCI-H522, in the assay on OVCAR-3 and with OVCAR-8 was > 100 µM (inactive) throughout. The GI50 in the assay with PC-3, in the assay with RPMI-8226, in the assay with SF-539, with SK-MEL-28, in the assay on SK-OV-3 and in the assay with SNB-75 was > 100 µM (inactive) each time. For the same molecule, the GI50 with SR was > 100 µM (inactive).

The values above are taken from ChEMBL document CHEMBL1201862, “PubChem BioAssay data set” (2004).
